Results on 1 molecule are retold here after patent publication US8637573B2 (Iasomai AB, priority 2009, dated 2014).

Data set [1] is described as follows: Toxicity observation in the murine endometriosis model. The format is in vivo. To be noted: mice, 44 mg/kg/day by gavage, 21 days. An excerpt:
(§1) The day after the endometrial implant, mice of the treatment group were subjected to gavage with 100 [mu] […] The control group only received water. […] At the end of treatment, mice were killed through cervical dislocation.

Data set [2] is described as follows: Preliminary clinical study: pain intensity by 10-points visual analogue scale (VAS). Format: in vivo, women. To be noted: NAC-treated patients, 10-points VAS. How it is done: (§2) Before treatment, the intensity of pain symptoms was measured by the means of a 10 points visual analogue scale (VAS) and the characteristics of the ovarian endometriomas by transvaginal ultrasounds. During NAC treatment, other treatments are excluded with the exception of analgesic to treat pain, when needed. Patients.
(§3) From February 2008 to July 2010, 64 women diagnosed for ovaric endometriosis were enrolled in the study, with a mean age of 35+−7 years (+−SD). […] All of them presented one or more cysts at one or both ovaries.
(§4) 1995; 4:245-51), the suspension of the treatment for about half of each week warrants an optimal biological response in a lengthy treatment, e.g. two to six months or longer.
(§5) Pain symptoms intensity (VAS pain scale) and the size of the ovarian endometriomas (clinical and US exams) were evaluated after the first three months of treatment. If necessary, laparoscopic treatment was performed after 3 months.
Pain perception was also modified after NAC treatment. Pain was evaluated, before and after the three-months treatment, by a 10-points visual analogue scale (VAS) with zero representing no pain and 10 representing the worst imaginable pain. Intensity of symptoms were classified as none (0), mild (1-4), moderate (5-7), or severe (8-10). NAC-treated patients reported an average pain reduction, from 7.6+−0.3 to 5.1+−0.8 (p<0.01) after three months of treatment.

The conditions of data set [3]: cited from earlier work.
The subject of a further data set is vaginal hyperalgesia. As to the kind of experiment: Experimentally induced endometriosis in rats: escape response to vaginal distention (vaginal hyperalgesia). Format: in vivo, Sprague-Dawley rats. The note with it: 60 mg/kg/day, 8 weeks, 0.5 ml distension volume.
A further data set concerns E-cadherin. As to the kind of experiment: Immunohistochemical detection of E-cadherin in cysts from mice. To be noted: 44 mg/kg/day, 21 days, controls: diffused all over cell cytoplasm. Format: in vivo, BALB/C mice. Here is the method: as §1
(§6) Formalin-fixed samples were paraffin-embedded and tissue sections (5 [mu] [iota] [eta] thick) were stained using haematoxylin-eosin. All slides were evaluated by an experienced pathologist who was blind to the study and the histological diagnosis of endometriosis was based on the morphological identification of endometrial glandular tissue and stroma.
(§7) For immunohistochemistry, sections were deparaffinized and rehydrated in graded ethanol. For antigen retrieval, sections were microwaved for 6 min in 0.1 M citrate buffer (pH 6.0) and endogenous peroxidase activity was blocked by a 20 min incubation in 3% H202/methanol. Sections were rinsed in PBS/TritonX-100, immersed for 15 min in PBS-bovine serum albumin (BSA) 1% to block unspecific binding sites, and then incubated with the selected primary antibody diluted in PBS-BSA 1%. […] The quantification of Ki-67 expression was carried out in a blind fashion by two independent observers; each observer counted at least 200 cells in more than 10 randomly chosen fields for each sample and the Ki-67 labeling index was expressed in percentage.

A further data set relates to Ki-67. Kind of data set: Ki-67 immunohistochemistry (labeling index) in cysts from mice. The format is in vivo, BALB/C mice. The note with it: 44 mg/kg/day, 21 days. Here is the method:
as §1, §6, §7

A short description of data set [4]: Preliminary clinical study: side effects, pregnancy and other observations. Format: in vivo, women.
From the text: as §3, §4, §5

The next data set has as its system P21 (cdkn1a). As to the kind of experiment: RT-PCR of P21 gene expression in cysts from mice. Format: in vivo, BALB/C mice. The note with it: 44 mg/kg/day, 21 days. How it is done:
as §1
Total RNA was isolated by lysing the frozen endometrial cysts with TissueLyser (QIAGEN, Milan, Italy) using TRIzol Reagent (Invitrogen, Milan, Italy) according to the manufacturer's instructions. One microgram of total RNA from each sample was treated with 1 U of DNAse I (Invitrogen) and reverse transcribed with 200 U of Superscript III Reverse Transcriptase (Invitrogen), using 250 ng of random primers in 20 [mu] l of final volume. […]
First, the ratio between the sample and the housekeeping gene was calculated by simultaneous amplification of gene-specific mRNA and 18S RNA in a single reaction tube. Since this procedure was not successful for all samples—likely due to the relative small number of specific transcripts thus of a preferential amplification of 18S mRNA—to prevent quantitative inaccuracies deriving from competitive effects, the target genes and 18 S cDNA generated in the same RT reaction were amplified in separate tubes. […] Semi quantitative PCR was performed in a 25 [mu] […] The densitometric analyses of the PCR products were performed using an image software Quantity One (VersaDOC, Bio-Rad).

A further data set deals with endometriotic lesions. Kind of data set: Murine model of endometriosis: growth (total weight) of endometriotic lesions. The format is in vivo, BALB/C mice. The note with it: mice, gavage 44 mg/kg/day daily for 21 days; n=10 vs n=10; p<0.05. Here is the method: 36 female, 6 to 8 weeks-old BALB/C mice were purchased from Charles River Italia (Calco, Italy). Pellet food (enriched standard diet; Mucedola, Milan, Italy) and water were provided ad libitum. Animals were kept on a light/dark cycle of 16/8 hours under controlled conditions. Prior to any invasive procedure, the mice were anaesthetized by intraperitoneal injection of 0.4 ml of a physiological solution containing 2.5% AVERTIN.
Induction of endometriosis was performed following the method described in Somigliana et al, Hum Reprod 1999 December; 14(12):2944-50. Surgical interventions were performed under clean conditions. Briefly, uterine horns of syngenic mice were removed through a small midline incision into the peritoneal space, just below the umbilicus, and put into a Petri dish containing phosphate-buffered saline (PBS). Endometrial fragments were obtained by finely chopping uterine horns by using a razor blade. Fragments were suspended in 0.6 ml of PBS and rapidly inoculated into the peritoneal cavity of recipient mice with a ratio of one donor to two recipients. The endometriosis-induced mice were randomly divided into two groups of 12 mice each: control and NAC-treatment. […]
At the end of the treatment, animals were sacrificed and endometriotic lesions were carefully excised from the surrounding tissue, their total weight and number was assessed. […]

The test system of the next data set is Cox-2 protein. As to the kind of experiment: Immunohistochemical detection of Cox-2 protein in cysts from mice. The format is in vivo, BALB/C mice. To be noted: 44 mg/kg/day, 21 days. Here is the method:
as §1, §6, §7

Another data set concerns ovarian endometriomas. As to the kind of experiment: Preliminary clinical study: size of ovarian endometriomas by ultrasound. The format is in vivo. The note with it: women. Here is the method: Women with a first diagnosis of endometriosis, based on pain and on ovarian ultrasound evidence of the disease, and patients with a recurrence of pain and/or ovarian endometrioma after laparoscopic treatment were enrolled in the study,
as §2, §3, §4, §5

Experimental for vaginal hyperalgesia: 16 adult virgin female Sprague-Dawley rats were used. They weighed 200-230 g at the start of the study and were housed individually in a temperature-controlled room in plastic cages lined with bedding. The rats had ad libitum access to water and rat chow and were maintained on a 12-h light/dark cycle, with lights on at 07:00. Reproductive status (proestrus, estrus, metestrus, and diestrus) was determined by daily vaginal lavage performed. Prior to induction of endometriosis rats were trained to perform an escape response to terminate vaginal distention produced by an inflatable latex balloon. A small uninflated latex balloon was tied to a thin catheter lubricated before being inserted into the mid-vaginal canal. Inflating the balloon with different volumes of air distended the vaginal canal. The pressure produced by each volume of distention was control measured through a small-volume pressure transducer. The testing apparatus was a small cylindrical plexiglass chamber designed to contain the rat just enough to prevent her from turning around. An opening in the rear of the chamber allowed the catheter attached to the vaginal stimulator to be connected to a stimulus apparatus. A photosensor determined the position of the rat in the chamber. If the rat extended, as part of an escape response, the light beam was broken and the stimulus was terminated. The rats were adopted to the testing chamber by placing it in the chamber for 15 min daily for 5 days. The rats were then, during training sessions, accustomed to a mechanical escape response to deflate vaginal distension, which involved the rat extending her head to interrupt the light beam. […] Time to response and escape responses were measured as a function of distention volume for each session, as described in Cason A M et al (Horm Behav. (2003), Vol. 44, pages 123-31). […] For each rat, the escape responses and pressures/volumes for all of that rat's sessions (at least 12 sessions) were combined, and the mean values calculated. […] The escape response to terminate vaginal distention, as described above, was assessed after 8 weeks.

Regarding `CC(=O)N[C@@H](CS)C(=O)O` [NAC, N-acetyl-L-cysteine], the “body weight at the end of treatment” value in data set [1] is “unchanged”. In addition, the “average pain (VAS) after three months of treatment” value in [2] (1.8 g per day three days each week, p<0.01) was 5.1+−0.8. Besides, in data set [2] (baseline), the “average pain (VAS) before treatment” value is on record as 7.6+−0.3. In data set [3] (in vivo), the “time to peak concentration in plasma” value is on record as “about one”. Further, in [3] (in vivo), the “time to total clearance” value was “six and twelve”. Also, the half-life result in [3] (plasma) is recorded as “about three”. Moreover, the “relative reduction in escape response in relation to sham treated group” value came out at 18% in the data set on vaginal hyperalgesia (daily NAC treatment); 28% in the data set with vaginal hyperalgesia (intermittent NAC treatment (5 days and 2 days rest)); 32% in the data set with vaginal hyperalgesia (pulsed NAC treatment (every other day)). In addition, the “E-cadherin localisation in cysts” value in the data set on E-cadherin is given as “mainly detected along cell-cell junctions”. The “reduction in proliferating cells (Ki-67) relative to control mice” value with Ki-67 (8 animals per group) was 54%. Further, the “Labeling index for Ki-67 with standard error” value with Ki-67 (n = 8 × 5, p < 0.01) amounted to 0.87 ± 0.11%. Moreover, the cases of pregnancy entry in data set [4] (NAC-treated women, no statistical significance attributed) is listed as “three”. In data set [4] (anecdotic observation by surgeon, endometrioma more regular and compact), the “bleeding during laparoscopy after NAC treatment” value was “relevant reduction in bleeding”. Moreover, the recto-vaginal septum nodule result in data set [4] (one additional case) is reported as “disappeared”. The adverse side effects result in data set [4] (women, 1.8 g NAC per day, three days each week, three months) was “No adverse side effects”. Besides, in the data set on P21 (cdkn1a) (never expressed in the 5 controls), the “P21 gene expressed, number of examined NAC-treated samples” value was 3 of the 5. Moreover, the “P21 observed, percent of NAC-treated animals” value in the data set with P21 (cdkn1a) (not expressed in controls) turned out to be 60%. The “total weight of endometriotic lesions vs controls” value in the data set with endometriotic lesions is “significant weight reduction”. The “Cox-2 protein immunohistochemical staining relative to cysts from control mice” value in the data set on Cox-2 protein was “quite a decreased staining”. The “cases with a decrease in cyst size (maximum diameter by ultrasound)” value in the data set with ovarian endometriomas (1.8 g NAC per day, three consecutive days each week, three months, controls less than 10%) turned out to be 38%. In the data set on ovarian endometriomas (NAC treatment three months), the “patients who decided to cancel or postpone the programmed laparoscopy” value is 21 out of 33.
